# Data reported in patent US20060205761A1, “Ccr-2 antagonists for treatment of neuropathic pain” (priority 2003, published 2006).
# Columns and labels:
# [1] = system: formalin-induced pain behavior; experiment: Mouse formalin test; assay type: in vivo; settings: for decrease of pain behavior in the formalin test: 60 min before formalin
# Procedure: Formalin Test: For 4 days prior to testing, mice were acclimated for 2 hours every day on the test platform. On the day of study, mice were placed for 1 hour on the test platform, and subsequently were administered 10 μl of 2% formalin in the plantar surface of the left paw. The time mice spent either licking or lifting the injected paw was recorded over 2-minute periods at 5-minute intervals for 50 minutes. […] Phase 1 (0-10 min post-injection) is considered to reflect acute pain, whereas phase 2 (10-50 min post-injection) reflects chronic, inflammatory pain. The formalin test: a quantitative study of the analgesic effects of morphine, meperidine, and brain stem stimulation in rats and cats. Pain. December 1977;4(2):161-74) Intragastrical administration by gavage: Compound and vehicle were given via a 18 G Gavage needle at 0.2 ml/30 g of the mouse body weight. Compounds: A CCR-2 antagonist having the formula: [drawing 1085] (CCR-2 Antagonist “A”) was tested in the formalin test and the mouse nerve injury model. A second CCR-2 antagonist: [drawing 1086] (CCR-2 Antagonist “B”) was tested in the formalin test only. Both compounds were diluted in 0.5% methylcellulose and were dosed p.o. at a volume of 0.2 ml per 30 g body-weight. For the formalin test, compounds were administered 60 min before the formalin injection. For the nerve injury model, Compound A was tested 4-5 days after surgery. A third CCR-2 antagonist having the formula: [drawing 1087] (CCR-2 Antagonist “C”) was tested in the rat nerve model, MCP-1 co-administration model, the carrageenan model and the CFA model. The compound was dissolved into ethanol/H2O=9/95 prior to testing.
# [2] = system: CFA-induced weight bearing deficit; experiment: Rat Complete Freund's Adjuvant (CFA) model, weight bearing; assay type: in vivo, Sprague-Dawley rat
# Procedure: Complete Freund's Adjuvant (CFA): Male Sprague-Dawley rats (Charles River) were injected with CFA (150 μl) intraplantar into their left paw. This study included 3 groups: (1) CCR-2 Antagonist C at 3 mg/kg bid started 2 hours before CFA injection, (2) vehicle group and (3) CCR-2 Antagonist C at 10 mg/kg given on day 3 post-CFA (rats received vehicle on day 0-2)(n=6 per group). Rats were dosed for 3.5 days bid. Before the morning dose and two hours after it, weight bearing and paw size were measured. On the final day of the study (day 3 post-CFA) in addition to weight bearing, paw pressure threshold was also evaluated at 2 hr post dose.
# [3] = system: mechanical allodynia induced by MCP-1; experiment: Intrathecal MCP-1 injection and co-injection with CCR-2 antagonist, 50% paw withdrawal threshold; assay type: in vivo; settings: rat
# Procedure: Intrathecal administration by intrathecal catheter: Using Hamilton syringe to inject each rat: 5 μl compound or vehicle, 1 μl air and 9 μl vehicle. Intrathecal catheterization. After shaving the back of the head and neck, the rats were placed in a stereotaxic headholder with the head flexed forward. A 8-cm saline filled polyethylene tube (PE5) was placed into the subarachnoid space through a small puncture and threaded caudally so that the caudal tip rested on the rostral edge of the lumbar enlargement. The rats were allowed to recover for a minimum of 2-3 days prior to further study. […] Animals with impaired motor function (e.g. hind limb paralysis) were euthanized. Compounds: A CCR-2 antagonist having the formula: [drawing 1085] (CCR-2 Antagonist “A”) was tested in the formalin test and the mouse nerve injury model. A second CCR-2 antagonist: [drawing 1086] (CCR-2 Antagonist “B”) was tested in the formalin test only. Both compounds were diluted in 0.5% methylcellulose and were dosed p.o. at a volume of 0.2 ml per 30 g body-weight. For the formalin test, compounds were administered 60 min before the formalin injection. For the nerve injury model, Compound A was tested 4-5 days after surgery. A third CCR-2 antagonist having the formula: [drawing 1087] […] At Day 0, 1, 3, 4, 7, 10, 11, 15, 18 and 21 post dosing, 50% paw withdrawal threshold was determined.
# [4] = system: mechanical allodynia after spinal nerve ligation; experiment: L5-L6 spinal nerve ligation (Chung) model, 50% paw withdrawal threshold / % MPE; assay type: in vivo, Sprague-Dawley rat; settings: rat
# Procedure: Intragastrical administration by gavage: Compound and vehicle were given via a 15 G Gavage needle at 1 ml/100 g of the rat body weight. L5-L6 Spinal Nerve Ligation (Chung): Male Sprague-Dawley rats (Taconic) were anesthetized with 2% gaseous isofluorane (For induction 3-5% and O2 […], for maintenance 2-3% and O2 […]). Following dorsal skin incision and muscle separation, the posterior interarticular traverse process of L/S1 was exposed and carefully removed with a mircro Rongeur. The L5 and L6 spinal nerves were tightly ligated by a square knot with 6-0 silk thread. The muscles were closed with 4-0 absorbable sutures and the skin was closed with wound clips. […] Animals were pre-tested and non-sensitive rats (50% paw withdrawal threshold above 3 g) were also excluded from compound testing. The results were expressed either as 50% paw withdrawal threshold, or in % maximal possible effect (MPE). MPE was calculated as follows: [formula] Pre-operation cut-off value is 15 grams. CCR-2 Antagonist C was evaluated in a multiple dosing study for 5 days. […] 50% paw withdrawal threshold following multiple dosing (3 mg/kg, PO, b.i.d.) of CCR-2 Antagonist C. Five days post spinal nerve ligation, the animals were tested before and 1 hr after dosing at 7 a.m. each day for 5 days. Data=Mean±SEM, n=10 rats. Efficacy: % MPE. […]
smiles,measurement,setting,value
CO[C@H]1COCC[C@H]1NC1CC[C@@](C(=O)N2CCc3ncc(C(F)(F)F)cc3C2)(C(C)C)C1 (some centres unmarked) [CCR-2 Antagonist B],decrease of phase 2 of the formalin test,[1]; 10 mg/kg,20%
same,decrease of pain behavior in the formalin test,[1]; 30 mg/kg p.o.,30%
same,decrease of phase 2 of the formalin test,[1]; 30 mg/kg,30%
CC(C)[C@]1(C(=O)N2CCc3ncc(C(F)(F)F)cc3C2)CC[C@@H](NC2CCOC[C@H]2C)C1 (some centres unmarked) [CCR-2 Antagonist C],effect on weight bearing,"[2]; 3 mg/kg bid, day 2 and 3",significantly reversed weight bearing
same,effect on weight bearing on the affected limb,"[2]; 10 mg/kg, day 3",significantly reversed weight bearing
same,anti-allodynic effect (50% paw withdrawal threshold) of co-injection with MCP-1,"[3]; 20 μg/rat via intrathecal catheter with MCP-1 750 ng/rat, day 4, 7, 10 and 11",partial preemptive anti-allodynic effect
same,effect of co-injection with MCP-1 on development of mechanical allodynia,[3]; intrathecal co-injection with MCP-1,inhibited and delayed the development of mechanical allodynia
same,efficacy in multiple dosing study (50% paw withdrawal threshold),[4]; 3 mg/kg PO b.i.d. for 5 days,significant efficacy
same,"Efficacy: % MPE, day from which efficacy is significant","[4]; 3 mg/kg PO b.i.d., tested before and 1 hr after dosing each day for 5 days",Significant efficacy was observed starting at day 3
CC(C)[C@]1(C(=O)N2CCc3ccc(C(F)(F)F)cc3C2)CCC(N[C@H]2CCOC[C@H]2C)C1 (some centres unmarked) [CCR-2 Antagonist A],effect in the formalin test versus vehicle,[1]; 1 mg/kg p.o.,No difference with the vehicle group
same,decrease of pain behavior in the formalin test,[1]; 3 mg/kg p.o.,50%
same,effect on phase 2 times of the formalin test,[1]; 3 mg/kg p.o.,significantly decreased
same,effect on phase 2 times of the formalin test,[1]; 30 mg/kg p.o.,significantly decreased
same,effect on phase 1 of the formalin test,"[1]; p.o., phase 1",no effect
